Test results from patent EP0603240B1, “SAFENING HERBICIDAL PYRAZOLYLSULFONYLUREAS” (priority 1991, dated 1993).

Experiments:
Format in all cases: in vivo
corn [1] = test: Example 19, Procedure II: Herbicide No. 1 + ERADICANE EXTRA with added antidotes
Summary of the method: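 Corn seeded in silt loam, covered with soil incorporating herbicide plus antidote (from acetone); EPTC given as ERADICANE EXTRA (with R-29148 and dietholate). Initial overhead irrigation equal to 0.6 cm rain, then greenhouse sub-irrigation. Percent injury scored; efficacy is injury without antidote minus injury with it.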

[2] = tested on: barnyardgrass (Echinochloa crusgalli); test: Example 22: retest of Example 21 at reduced greenhouse temperatures; conditions: Table 22
Description: (§1) Containers were filled and compacted with a fumigated silt loam top soil to a depth of about 1.3 cm from the top of the container. A first container was designated as an untreated control, a second container was designated as a herbicide control, and a third container was designated as a herbicide + antidote test container. Each of the containers was seeded with a crop species. A measured amount of herbicide dispersed or dissolved in acetone was applied to a measured quantity of soil. To this same quantity of soil treated with herbicide, there was added a measured amount of antidote dispersed or dissolved in acetone. The quantity of soil treated with the herbicide and antidote was thoroughly mixed to incorporate the herbicide and antidote in the soil uniformly. The seed bed in the third container of soil was covered with the soil treated with the herbicide and antidote and the container was leveled. For each test series, the seed beds of the first and second containers were likewise covered by soil layers. the cover layer of the first container was not treated with herbicide or antidote.
(§2) The containers were then placed on a bench in a greenhouse and sub-irrigated as required for the duration of the test. […] Plant response is measured in terms of percent injury. Antidote efficacy is indicated as the difference in plant injury by the herbicide(s) without the antidote and with the antidote.
(§3) This procedure is the same as Procedure I, but modified in the manner that after incorporation of the chemicals (herbicide and antidote) the containers with the covered seedbed were treated with an initial overhead irrigation equivalent to 0.6 cm rainfall, then subsequently sub-irrigated as required on greenhouse benches.
In the series of greenhouse tests described below, for routine screening purposes the herbicide/antidote compositions were tested in crop/weed combinations involving corn as the crop and either or both of the weeds barnyardgrass (Echinochloa crusgalli), a monocotyledonous weed, and velvetleaf (Abutilon theophrasti), a dicotyledonous weed. In the tables below, these weeds are indicated by the symbols "BYG" and "VL", respectively.
(§4) In this example, tests were conducted as in the preceding Examples 18-20, except here the co-herbicidal component was SUTAN® PLUS, a commercial product comprising as the active herbicidal ingredient the compound butylate (Herbicide No. 10) and an antidote […] (Antidote No. 1). Again, the antidotal compounds herein were Nos. 1, 2, 7, 13 and 15. Procedure II was used.
(§5) The experiments in this example were designed as a retest of those described in Example 21 in view of the uncharacteristically poor corn safety and weed control, believed to have resulted from unseasonably high temperatures in the greenhouse. Accordingly, temperatures were reduced for these tests.

corn [3] = test: Example 9, Procedure II: Herbicide No. 1 + pretilachlor (No. 13) with antidotes
Description: as §1, §2, §3
In this example the safening effect on a composition comprising Herbicide No. 1 and another leading rice herbicide, i.e., Herbicide No. 13, was investigated using the same antidotes and test procedure described in the preceding example. Herbicide No. 13 is pretilachlor, active ingredient used in the commercial rice herbicides RIFIT®, SOFIT® and SOFIT® SUPER.

corn [4] = test: Example 21, Procedure II: Herbicide No. 1 + SUTAN PLUS (butylate + antidote) with antidotes
Description: as §1, §2, §3, §4

corn [5] = test: Example 22: retest of Example 21 at reduced greenhouse temperatures; conditions: Table 22
Description: as §1, §2, §3, §4, §5

[6] = tested on: Giant foxtail (Setaria fabergi); test: Example 23, Procedure II: Antidote Nos. 15 and 17-21 against Herbicide No. 1, 13 days after application
Description: as §1, §2, §3
(§6) In other greenhouse tests, using Procedure II described above, the safening efficacy of Antidote Nos. 15 and 17-21 was evaluated against Herbicide No. 1 in corn in the presence of Giant foxtail (Setaria fabergi) and Velvetleaf (Abutilon theophrasti) as representative annual monocotyledonous and dicotyledonous weeds, respectively.
(§7) Test results are shown in Tables 23A and 23B wherein the indicated plant inhibition represents the average of duplicate replications, with observations being made thirteen (13) days after application of the chemicals. Giant foxtail and Velvetleaf are represented by the symbols "GFT" and "VL", respectively. The data in Table 23A show the test results using the antidotes at 2.24 kg/ha, whereas in Table 23B, the antidotal rate was reduced to 0.56 kg/ha.

[7] = tested on: velvetleaf (Abutilon theophrasti); test: as above
Description: as §1, §2, §3, §6, §7

corn [8] = test: as above; conditions: 13 days after application
Description: as §1, §2, §3, §6, §7

[9] = Herbicide No.1 0.56 kg/ha + ERADICANE EXTRA 8.96 kg/ha, antidote 2.24 kg/ha
[10] = Herbicide No.1 0.56 kg/ha + ERADICANE EXTRA 8.96 kg/ha, antidote 8.96 kg/ha
[11] = Herbicide No.1 1.12 kg/ha + ERADICANE EXTRA 8.96 kg/ha, antidote 2.24 kg/ha
[12] = Herbicide No.1 1.12 kg/ha + ERADICANE EXTRA 8.96 kg/ha, antidote 8.96 kg/ha
[13] = Herbicide No.1 0.56 Kg/ha + SUTAN + 8.96 Kg/ha + antidote 2.24 Kg/ha
[14] = Herbicide No.1 0.56 Kg/ha + SUTAN + 8.96 Kg/ha + antidote 8.96 Kg/ha
[15] = Herbicide No.1 1.12 Kg/ha + SUTAN + 8.96 Kg/ha + antidote 2.24 Kg/ha
[16] = Herbicide No.1 1.12 Kg/ha + SUTAN + 8.96 Kg/ha + antidote 8.96 Kg/ha
[17] = Herbicide No.1 0.14 kg/ha + Herbicide No.13 2.24 kg/ha, antidote rate 2.24 kg/ha
[18] = Herbicide No.1 0.14 kg/ha + Herbicide No.13 2.24 kg/ha, antidote rate 8.96 kg/ha
[19] = Herbicide No.1 0.56 kg/ha + Herbicide No.13 2.24 kg/ha, antidote rate 2.24 kg/ha
[20] = Herbicide No.1 0.56 kg/ha + Herbicide No.13 2.24 kg/ha, antidote rate 8.96 kg/ha
[21] = Herbicide No.1 0.56 kg/ha + SUTAN + 8.96 kg/ha, antidote 2.24 kg/ha
[22] = Herbicide No.1 0.56 kg/ha + SUTAN + 8.96 kg/ha, antidote 8.96 kg/ha
[23] = Herbicide No.1 1.12 kg/ha + SUTAN + 8.96 kg/ha, antidote 2.24 kg/ha
[24] = Herbicide No.1 1.12 kg/ha + SUTAN + 8.96 kg/ha, antidote 8.96 kg/ha
[25] = Table 23A, Herb. No. 1 0.14 Kg/Ha + antidote 2.24 Kg/ha
[26] = Table 23A, Herb. No. 1 0.28 Kg/Ha + antidote 2.24 Kg/ha
[27] = Table 23A, Herb. No. 1 0.56 Kg/Ha + antidote 2.24 Kg/ha
[28] = Table 23A, Herb. No. 1 1.12 Kg/Ha + antidote 2.24 Kg/ha
[29] = Table 23B, Herb. No. 1 0.14 Kg/Ha + antidote 0.56 Kg/ha
[30] = Table 23B, Herb. No. 1 0.28 Kg/Ha + antidote 0.56 Kg/ha
[31] = Table 23B, Herb. No. 1 0.56 Kg/Ha + antidote 0.56 Kg/ha
[32] = Table 23B, Herb. No. 1 1.12 Kg/Ha + antidote 0.56 Kg/ha

For `C=CCN(CC=C)C(=O)C(Cl)Cl` [compound 1], the “% Injury Corn” value (corn [1]; [9]) was 35%, the “% Injury Corn” value (corn [1]; [10]) was 15% and the “% Injury Corn” value (corn [1]; [11]) was 35%. The “% Injury Corn” value (corn [1]; [12]) was 25%, the “% Injury BYG” value [2, 13] was 93% and the “% Injury BYG” value [2, 14] was 90%. For the same molecule, the “% Injury BYG” value [2, 15] was 85%, the “% Injury BYG” value [2, 16] was 90% and the “% Injury Corn” value (corn [3]; [17]) was 0%. The “% Injury Corn” value (corn [3]; [18]) was 0%, the “% Injury Corn” value (corn [3]; [19]) was 5% and the “% Injury Corn” value (corn [3]; [20]) was 10%. The “% Injury Corn” value (corn [4]; [21]) was 15%, the “% Injury Corn” value (corn [4]; [22]) was 15% and the “% Injury Corn” value (corn [4]; [23]) was 30%. For the same molecule, the “% Injury Corn” value (corn [4]; [24]) was 20%, the “% Injury Corn” value (corn [5]; [13]) was 45% and the “% Injury Corn” value (corn [5]; [14]) was 60%. The “% Injury Corn” value (corn [5]; [15]) was 50% and the “% Injury Corn” value (corn [5]; [16]) was 55%.

For `CC1(C)OC(c2ccco2)CN1C(=O)C(Cl)Cl` (stereo not drawn) [compound 15], the “% Injury Corn” value (corn [1]; [9]) was 20%, the “% Injury Corn” value (corn [1]; [10]) was 30% and the “% Injury Corn” value (corn [1]; [11]) was 25%. The “% Injury Corn” value (corn [1]; [12]) was 25%, the “% Injury BYG” value [2, 13] was 85% and the “% Injury BYG” value [2, 14] was 90%. For the same molecule, the “% Injury BYG” value [2, 15] was 85%, the “% Injury BYG” value [2, 16] was 90% and the “% Injury Corn” value (corn [3]; [17]) was 5%. For the same molecule, the “% Injury Corn” value (corn [3]; [18]) was 0%, the “% Injury Corn” value (corn [3]; [19]) was 15% and the “% Injury Corn” value (corn [3]; [20]) was 5%. For the same molecule, the “% Injury Corn” value (corn [4]; [21]) was 25%, the “% Injury Corn” value (corn [4]; [22]) was 25% and the “% Injury Corn” value (corn [4]; [23]) was 30%. The “% Injury Corn” value (corn [4]; [24]) was 20%, the “% Injury Corn” value (corn [5]; [13]) was 45% and the “% Injury Corn” value (corn [5]; [14]) was 55%. The “% Injury Corn” value (corn [5]; [15]) was 60%, the “% Injury Corn” value (corn [5]; [16]) was 45% and the “% Inhibition GFT” value [6, 25] was 20%. The “% Inhibition GFT” value [6, 26] was 30%, the “% Inhibition GFT” value [6, 27] was 65% and the “% Inhibition GFT” value [6, 28] was 75%. For the same molecule, the “% Inhibition GFT” value [6, 29] was 20%, the “% Inhibition GFT” value [6, 30] was 30% and the “% Inhibition GFT” value [6, 31] was 60%. For the same molecule, the “% Inhibition GFT” value [6, 32] was 70%, the “% Inhibition VL” value [7, 25] was 90% and the “% Inhibition VL” value [7, 26] was 90%. The “% Inhibition VL” value [7, 27] was 90%, the “% Inhibition VL” value [7, 28] was 98% and the “% Inhibition VL” value [7, 29] was 85%. For the same molecule, the “% Inhibition VL” value [7, 30] was 90%, the “% Inhibition VL” value [7, 31] was 95% and the “% Inhibition VL” value [7, 32] was 95%. For the same molecule, the “% Inhibition Corn” value (corn [8]; [25]) was 5%, the “% Inhibition Corn” value (corn [8]; [26]) was 0% and the “% Inhibition Corn” value (corn [8]; [27]) was 5%. For the same molecule, the “% Inhibition Corn” value (corn [8]; [28]) was 20%, the “% Inhibition Corn” value (corn [8]; [29]) was 0% and the “% Inhibition Corn” value (corn [8]; [30]) was 0%. For the same molecule, the “% Inhibition Corn” value (corn [8]; [31]) was 5% and the “% Inhibition Corn” value (corn [8]; [32]) was 10%.

For `O=C(C(Cl)Cl)N1CCOC12CCCCC2` [compound 7], the “% Injury Corn” value (corn [1]; [9]) was 15%, the “% Injury Corn” value (corn [1]; [10]) was 20% and the “% Injury Corn” value (corn [1]; [11]) was 25%. The “% Injury Corn” value (corn [1]; [12]) was 25%, the “% Injury BYG” value [2, 13] was 90% and the “% Injury BYG” value [2, 14] was 90%. The “% Injury BYG” value [2, 15] was 95%, the “% Injury BYG” value [2, 16] was 80% and the “% Injury Corn” value (corn [3]; [17]) was 10%. For the same molecule, the “% Injury Corn” value (corn [3]; [18]) was 0%, the “% Injury Corn” value (corn [3]; [19]) was 30% and the “% Injury Corn” value (corn [3]; [20]) was 25%. For the same molecule, the “% Injury Corn” value (corn [4]; [21]) was 5%, the “% Injury Corn” value (corn [4]; [22]) was 20% and the “% Injury Corn” value (corn [4]; [23]) was 15%. The “% Injury Corn” value (corn [4]; [24]) was 15%, the “% Injury Corn” value (corn [5]; [13]) was 45% and the “% Injury Corn” value (corn [5]; [14]) was 50%. For the same molecule, the “% Injury Corn” value (corn [5]; [15]) was 65% and the “% Injury Corn” value (corn [5]; [16]) was 50%.
